Experimental data from patent publication US11076597B2, “High stress resistant plant growth regulator and preparation method and use thereof” (SHANGHAI INSTITUTES FOR BIOLOGICAL SCIENCES, CHINESE …, priority 2015, dated 2021).

Tested on: corn
Assay: Soil drought experiment, corn
Assay type: in vivo
Conditions: 50 μM sprayed once a day for two days; 4 days of drought; FIG. 14b
Experimental: Soil drought experiments used for compound 0428 on soybean and maize were similar to that used for compound 0224 on soybeans, with only one plant contained in each pot. All soybean plants were long-day cultured at 26° C. Watering was stopped after the plant had three leaves in each of three groups and the plants with consistent growth were selected for drought treatment. As for corn, watering was stopped during the small bell-mouthed period for drought treatment. A solution containing 0.05% tween-20 and 50 μM (+)-0428 or 0.05% Tween-20 and 0.05% DMSO (control) was sprayed once on leaf surface on the first day and the second day of the drought, respectively, with a spray amount of 4 ml/pot. Meanwhile the pot position was also changed. The soybeans were re-watered 9 days after the drought, the corn was re-watered 4 days after the drought, and the photos were taken the next day.
In another group of experiments, soil drought experiments were performed on soybeans with three leaves in three groups or corn plants during the small trumpet period of the same size.

## CCCN1C(=O)OCc2cc(NS(=O)(=O)Cc3c(F)c(F)c(C)c(F)c3F)ccc21 [Compound 0428]
  growth after drought and re-watering: significantly better growth after re-watering than that in the DMSO-sprayed control group
